Source: PMC5933782, “Molecular structures of cdc2-like kinases in complex with a new inhibitor chemotype” (PLoS ONE, 2018)

Key:
Assay in all cases: radiometric protein kinase assay
DYRK1A = DYRK1A (Homo sapiens, UniProt Q13627); type: biochemical; conditions: 15 μmol/L ATP; read-out: IC50 DYRK 1A
CK1δ/ε = type: biochemical, porcine; conditions: 15 μmol/L ATP; read-out: IC50 CK1
CDK9/cyclin T = CDK9/cyclin T (Homo sapiens, UniProt P50750)
Description: (§1) Buffers. Buffer A: 10 mM MgCl2, 1 mM EGTA, 1 mM DTT, 25 mM Tris-HCl pH 7.5, 50 μg heparin/mL. Buffer C: 60 mM β-glycerophosphate, 15 mM p-nitrophenylphosphate, 25 mM MOPS (pH 7.2), 15 mM EGTA, 15 mM MgCl2, 1 mM DTT, 1 mM sodium vanadate, 1 mM phenylphosphate.
(§2) Kinase activities were assayed in buffer A or C at 30°C at a final ATP concentration of 15 μmol/L. Blank values were subtracted and activities were expressed in percent of the maximal activity, i.e. in the absence of inhibitors. Controls were performed with appropriate dilutions of DMSO.
(§3) Their kinase activity was assayed in buffer A, with 1 mg histone H1/mL, in the presence of 15 μmol/L [γ-33P] ATP (3,000 Ci/mmol; 10 mCi/mL) in a final volume of 30 μL. After 30 min incubation at 30°C, the reaction was stopped by harvesting onto P81 phosphocellulose supernatant (Whatman) using a FilterMate harvester (Packard) and washing in 1% phosphoric acid. Scintillation fluid was added and the radioactivity measured in a Packard counter.
(§4) All data points for construction of dose response curves were recorded in triplicate.

CDK1/cyclin B = type: biochemical, starfish; conditions: 15 μmol/L ATP
GSK-3 = type: biochemical, porcine; conditions: 15 μmol/L ATP; read-out: IC50 GSK3
CLK1 = CLK1 (Mus musculus, UniProt P22518)
Sequence of CLK1 (P22518 whole entry): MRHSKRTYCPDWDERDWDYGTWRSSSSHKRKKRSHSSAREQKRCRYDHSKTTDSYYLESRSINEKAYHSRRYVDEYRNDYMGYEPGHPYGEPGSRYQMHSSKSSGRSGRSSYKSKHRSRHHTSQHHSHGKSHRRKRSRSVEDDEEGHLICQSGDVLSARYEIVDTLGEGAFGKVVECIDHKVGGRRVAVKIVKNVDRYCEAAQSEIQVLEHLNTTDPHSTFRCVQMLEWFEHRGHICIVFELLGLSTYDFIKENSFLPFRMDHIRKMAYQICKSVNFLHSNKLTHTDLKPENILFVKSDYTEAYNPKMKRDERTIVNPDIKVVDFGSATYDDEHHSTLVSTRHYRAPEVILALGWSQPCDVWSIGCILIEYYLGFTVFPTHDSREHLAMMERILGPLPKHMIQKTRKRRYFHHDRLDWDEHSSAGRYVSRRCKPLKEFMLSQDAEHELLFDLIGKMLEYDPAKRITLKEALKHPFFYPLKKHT

CDK5/p25 = molecular target: T1, CDK5/p25 (Homo sapiens, UniProt Q00535); type: biochemical; conditions: 15 μmol/L ATP
T1 construct: made in house
T1 sequence (Q00535 whole entry): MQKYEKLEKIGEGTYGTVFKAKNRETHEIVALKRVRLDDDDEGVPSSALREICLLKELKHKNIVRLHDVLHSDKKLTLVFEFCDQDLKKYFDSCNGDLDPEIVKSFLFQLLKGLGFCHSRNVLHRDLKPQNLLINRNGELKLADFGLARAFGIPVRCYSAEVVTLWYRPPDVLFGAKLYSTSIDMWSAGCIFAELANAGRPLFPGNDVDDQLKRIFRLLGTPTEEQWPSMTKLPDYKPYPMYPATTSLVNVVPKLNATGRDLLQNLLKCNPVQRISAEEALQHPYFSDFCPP
T1 sequence (Q15078 99-307 partner limits assumed): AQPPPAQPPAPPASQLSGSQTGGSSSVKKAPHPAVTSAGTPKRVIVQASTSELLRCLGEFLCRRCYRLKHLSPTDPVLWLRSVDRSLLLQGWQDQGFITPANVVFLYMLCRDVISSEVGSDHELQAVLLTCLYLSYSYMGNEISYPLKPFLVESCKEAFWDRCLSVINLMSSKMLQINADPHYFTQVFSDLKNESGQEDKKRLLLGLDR

CDK2/cyclin A = molecular target: T2, CDK2/cyclin A (Homo sapiens, UniProt P24941); type: biochemical; conditions: 15 μmol/L ATP; read-out: IC50 CDK2/cyclinA
T2 construct: made in house

DYRK1B = DYRK1B (Homo sapiens, UniProt Q9Y463); type: biochemical; conditions: 15 μmol/L ATP; read-out: IC50 DYRK 1B
Sequence of DYRK1B (Q9Y463 whole entry): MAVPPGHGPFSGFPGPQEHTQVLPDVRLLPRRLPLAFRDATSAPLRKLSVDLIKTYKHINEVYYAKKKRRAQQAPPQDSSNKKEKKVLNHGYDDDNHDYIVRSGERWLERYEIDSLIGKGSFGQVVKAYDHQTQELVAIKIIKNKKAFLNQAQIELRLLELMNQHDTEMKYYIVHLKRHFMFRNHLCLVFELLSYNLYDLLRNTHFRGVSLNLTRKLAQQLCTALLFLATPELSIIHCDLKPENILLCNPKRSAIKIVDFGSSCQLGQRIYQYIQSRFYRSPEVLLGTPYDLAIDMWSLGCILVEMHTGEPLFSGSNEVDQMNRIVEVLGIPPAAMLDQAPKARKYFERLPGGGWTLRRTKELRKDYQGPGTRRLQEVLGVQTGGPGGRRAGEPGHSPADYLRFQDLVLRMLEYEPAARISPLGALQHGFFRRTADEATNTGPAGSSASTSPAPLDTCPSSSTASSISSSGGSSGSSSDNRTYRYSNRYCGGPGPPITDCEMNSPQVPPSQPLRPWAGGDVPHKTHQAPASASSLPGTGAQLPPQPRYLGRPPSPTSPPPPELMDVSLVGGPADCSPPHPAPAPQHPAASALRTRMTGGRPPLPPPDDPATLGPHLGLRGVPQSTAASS

CLK4 = CLK4 (Mus musculus, UniProt O35493)
Sequence of CLK4 (O35493 whole entry): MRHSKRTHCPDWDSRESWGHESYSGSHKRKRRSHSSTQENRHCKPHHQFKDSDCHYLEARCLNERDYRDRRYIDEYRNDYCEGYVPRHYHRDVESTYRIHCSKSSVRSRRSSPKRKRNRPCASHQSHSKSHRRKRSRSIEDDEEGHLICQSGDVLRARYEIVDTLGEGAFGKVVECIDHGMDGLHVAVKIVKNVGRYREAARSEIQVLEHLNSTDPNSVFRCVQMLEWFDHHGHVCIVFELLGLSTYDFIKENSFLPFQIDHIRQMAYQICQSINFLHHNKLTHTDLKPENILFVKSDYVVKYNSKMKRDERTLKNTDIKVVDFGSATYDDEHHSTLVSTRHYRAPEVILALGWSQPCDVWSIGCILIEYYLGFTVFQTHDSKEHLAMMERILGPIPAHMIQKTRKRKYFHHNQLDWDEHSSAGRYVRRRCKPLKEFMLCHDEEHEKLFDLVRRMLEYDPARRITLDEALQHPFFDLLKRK

CLK3 = CLK3 (Mus musculus, UniProt O35492)
Sequence of CLK3 (O35492 whole entry): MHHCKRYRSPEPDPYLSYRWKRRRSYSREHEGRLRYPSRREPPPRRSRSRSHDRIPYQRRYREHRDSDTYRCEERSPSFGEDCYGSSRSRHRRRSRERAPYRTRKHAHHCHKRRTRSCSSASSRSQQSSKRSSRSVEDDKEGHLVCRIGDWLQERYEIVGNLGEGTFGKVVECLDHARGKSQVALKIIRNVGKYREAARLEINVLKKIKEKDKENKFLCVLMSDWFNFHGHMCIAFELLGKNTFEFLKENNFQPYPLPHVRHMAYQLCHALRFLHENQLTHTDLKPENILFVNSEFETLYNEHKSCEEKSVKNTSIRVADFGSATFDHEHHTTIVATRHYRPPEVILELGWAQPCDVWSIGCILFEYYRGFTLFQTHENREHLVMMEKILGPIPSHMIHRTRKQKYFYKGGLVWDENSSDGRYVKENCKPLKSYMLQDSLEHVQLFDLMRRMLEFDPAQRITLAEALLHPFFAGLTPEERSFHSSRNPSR
Description: as §1, §2, §3, §4

DYRK3 = molecular target: T3, DYRK3 (Homo sapiens, UniProt O43781); type: biochemical; conditions: 15 μmol/L ATP; read-out: IC50 DYRK 3
T3 sequence (O43781 1-588): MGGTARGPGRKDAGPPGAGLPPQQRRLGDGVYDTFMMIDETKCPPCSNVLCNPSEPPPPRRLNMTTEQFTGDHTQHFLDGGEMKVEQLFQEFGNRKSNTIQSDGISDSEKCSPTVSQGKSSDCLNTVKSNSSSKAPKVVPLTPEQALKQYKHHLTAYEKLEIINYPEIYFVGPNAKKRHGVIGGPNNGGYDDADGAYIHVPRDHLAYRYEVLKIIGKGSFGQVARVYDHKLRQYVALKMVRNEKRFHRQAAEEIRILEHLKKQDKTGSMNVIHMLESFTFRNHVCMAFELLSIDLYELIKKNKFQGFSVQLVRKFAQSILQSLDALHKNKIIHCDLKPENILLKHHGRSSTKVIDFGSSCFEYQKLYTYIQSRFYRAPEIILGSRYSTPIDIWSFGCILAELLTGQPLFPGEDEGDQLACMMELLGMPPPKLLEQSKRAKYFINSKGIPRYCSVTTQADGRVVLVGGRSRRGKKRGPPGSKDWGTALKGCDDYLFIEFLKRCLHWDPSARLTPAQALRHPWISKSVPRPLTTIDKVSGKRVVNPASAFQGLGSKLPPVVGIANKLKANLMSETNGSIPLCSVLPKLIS

CLK2 = CLK2 (Mus musculus, UniProt O35491)
Sequence of CLK2 (O35491 whole entry): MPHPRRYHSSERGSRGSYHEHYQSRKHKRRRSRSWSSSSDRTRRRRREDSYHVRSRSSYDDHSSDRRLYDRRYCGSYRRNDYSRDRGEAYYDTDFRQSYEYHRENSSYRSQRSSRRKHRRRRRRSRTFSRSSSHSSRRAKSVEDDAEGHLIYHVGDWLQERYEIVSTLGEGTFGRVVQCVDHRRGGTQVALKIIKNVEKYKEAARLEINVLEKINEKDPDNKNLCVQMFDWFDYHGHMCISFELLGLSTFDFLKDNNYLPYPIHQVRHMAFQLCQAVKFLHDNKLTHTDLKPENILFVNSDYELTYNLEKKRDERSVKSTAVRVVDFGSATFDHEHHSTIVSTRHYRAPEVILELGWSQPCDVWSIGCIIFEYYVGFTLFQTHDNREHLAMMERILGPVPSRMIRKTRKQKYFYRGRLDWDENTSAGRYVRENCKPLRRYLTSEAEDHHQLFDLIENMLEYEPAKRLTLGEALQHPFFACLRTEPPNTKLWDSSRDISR
Description: as §1, §2, §3, §4

DYRK2 = molecular target: T4, DYRK2 (Homo sapiens, UniProt Q92630); type: biochemical; conditions: 15 μmol/L ATP; read-out: IC50 DYRK 2
T4 sequence (Q92630 1-601): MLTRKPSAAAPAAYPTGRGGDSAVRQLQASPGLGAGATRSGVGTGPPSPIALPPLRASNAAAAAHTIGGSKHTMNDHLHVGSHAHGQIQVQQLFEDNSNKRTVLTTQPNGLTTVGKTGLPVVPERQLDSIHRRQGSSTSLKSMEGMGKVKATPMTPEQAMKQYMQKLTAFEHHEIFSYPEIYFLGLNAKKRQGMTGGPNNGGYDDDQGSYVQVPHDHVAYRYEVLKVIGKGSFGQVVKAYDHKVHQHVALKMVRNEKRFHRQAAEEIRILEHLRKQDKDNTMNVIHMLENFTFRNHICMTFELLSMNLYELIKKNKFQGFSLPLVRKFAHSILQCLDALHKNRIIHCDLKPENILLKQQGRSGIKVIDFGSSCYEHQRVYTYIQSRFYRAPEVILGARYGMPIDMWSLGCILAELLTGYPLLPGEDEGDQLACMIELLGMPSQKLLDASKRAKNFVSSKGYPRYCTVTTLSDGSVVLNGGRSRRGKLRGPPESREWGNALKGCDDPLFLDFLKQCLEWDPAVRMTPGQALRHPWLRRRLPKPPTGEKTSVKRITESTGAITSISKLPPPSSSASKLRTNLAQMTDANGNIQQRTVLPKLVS

Sequence of CDK9/cyclin T (P50750 whole entry): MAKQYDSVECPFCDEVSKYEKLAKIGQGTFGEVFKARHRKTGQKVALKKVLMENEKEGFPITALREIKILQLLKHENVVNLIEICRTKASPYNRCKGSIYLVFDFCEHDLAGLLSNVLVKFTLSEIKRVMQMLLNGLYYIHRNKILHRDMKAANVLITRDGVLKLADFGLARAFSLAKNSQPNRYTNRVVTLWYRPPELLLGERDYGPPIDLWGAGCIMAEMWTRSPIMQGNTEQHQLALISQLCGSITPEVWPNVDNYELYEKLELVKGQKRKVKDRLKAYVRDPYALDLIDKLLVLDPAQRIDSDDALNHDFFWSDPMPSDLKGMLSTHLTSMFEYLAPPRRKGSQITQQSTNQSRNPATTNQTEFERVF
Sequence of CDK9/cyclin T (O60563 whole entry partner): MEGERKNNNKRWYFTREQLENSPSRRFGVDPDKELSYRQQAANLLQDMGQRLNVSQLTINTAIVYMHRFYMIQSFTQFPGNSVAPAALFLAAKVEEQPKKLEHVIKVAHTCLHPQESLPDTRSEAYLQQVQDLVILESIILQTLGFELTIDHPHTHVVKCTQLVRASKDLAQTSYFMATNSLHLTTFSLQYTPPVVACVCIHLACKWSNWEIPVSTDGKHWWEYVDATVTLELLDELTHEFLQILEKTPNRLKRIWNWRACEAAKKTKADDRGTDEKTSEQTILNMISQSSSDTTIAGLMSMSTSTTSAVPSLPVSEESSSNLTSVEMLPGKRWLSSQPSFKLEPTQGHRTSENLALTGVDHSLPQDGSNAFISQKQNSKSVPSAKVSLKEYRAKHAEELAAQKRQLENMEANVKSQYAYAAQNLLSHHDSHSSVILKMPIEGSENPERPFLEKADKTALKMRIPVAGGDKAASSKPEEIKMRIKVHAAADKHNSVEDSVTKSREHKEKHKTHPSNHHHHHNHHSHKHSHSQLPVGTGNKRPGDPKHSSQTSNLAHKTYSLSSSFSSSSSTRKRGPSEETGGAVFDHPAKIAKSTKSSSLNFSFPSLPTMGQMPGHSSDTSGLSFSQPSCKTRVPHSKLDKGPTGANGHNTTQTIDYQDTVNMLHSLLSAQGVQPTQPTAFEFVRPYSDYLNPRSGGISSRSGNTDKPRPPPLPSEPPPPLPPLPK

Row | SMILES | IC50 (DYRK1A) [µM] | IC50 (CK1δ/ε) [µM] | IC50 (CDK9/cyclin T) [µM] | IC50 (CDK1/cyclin B) [µM] | IC50 (GSK-3) [µM] | IC50 (CLK1) [µM] | IC50 (CDK5/p25) [µM] | IC50 (CDK2/cyclin A) [µM] | IC50 (DYRK1B) [µM] | IC50 (CLK4) [µM] | IC50 (CLK3) [µM] | IC50 (DYRK3) [µM] | IC50 (CLK2) [µM] | IC50 (DYRK2) [µM]
1 | Cc1[nH]c2c3c(ccc2c1-c1ccccc1)CNC3=O [8k, 2-Methyl-3-phenyl-6,7-dihydropyrrolo[3,4-g]indol-8(1H)-one] | 1.5 | > 10 | > 10 | > 10 | > 10 | 0.093 | > 10 | > 10 | – | – | – | – | – | –
2 | CCc1[nH]c2c3c(ccc2c1-c1ccccc1)CNC3=O [8l, 2-Ethyl-3-phenyl-6,7-dihydropyrrolo[3,4-g]indol-8(1H)-one] | 0.81 | 6.1 | > 10 | > 10 | > 10 | 0.12 | > 10 | > 10 | – | – | – | – | – | –
3 | O=C1NCc2c(Br)cc3c(-c4ccccc4)c[nH]c3c21 [12a, 5-Bromo-3-phenyl-6,7-dihydropyrrolo[3,4-g]indol-8(1H)-one] | 0.2 | 1.7 | > 10 | 2.8 | > 10 | 0.043 | 5.3 | > 10 | – | – | – | – | – | –
4 | Cc1[nH]c2c3c(c(Br)cc2c1-c1ccccc1)CNC3=O [12b, 5-Bromo-2-methyl-3-phenyl-6,7-dihydropyrrolo[3,4-g]indol-8(1H)-one] | 0.11 | > 10 | > 10 | > 10 | > 10 | 0.023 | > 10 | > 10 | 0.11 | < 0.03 | 7.1 | 0.12 | 0.025 | 0.11
5 | O=C1NCc2c(Cl)cc3c(-c4ccccc4)c[nH]c3c21 [12c, 5-Chloro-3-phenyl-6,7-dihydropyrrolo[3,4-g]indol-8(1H)-one] | 0.32 | > 10 | > 10 | – | > 10 | 0.38 | > 10 | > 10 | 1.8 | 0.3 | 2.2 | > 10 | 0.033 | 2.3
6 | CN1Cc2ccc3c(-c4ccccc4)c[nH]c3c2C1=O [12d, 7-Methyl-3-phenyl-6,7-dihydropyrrolo[3,4-g]indol-8(1H)-one] | > 10 | > 10 | > 10 | > 10 | > 10 | > 10 | > 10 | > 10 | > 10 | > 10 | > 10 | > 10 | > 10 | > 10
7 | NC(=O)Cn1cc(-c2ccccc2)c2ccc3c(c21)C(=O)NC3 [15c, 2-(8-Oxo-3-phenyl-7,8-dihydropyrrolo[3,4-g]indol-1(6H)-yl)acetamide] | > 10 | > 10 | > 10 | > 10 | > 10 | > 10 | > 10 | > 10 | > 10 | > 10 | > 10 | > 10 | > 10 | > 10
